Measured values reported in ChEMBL document CHEMBL4813981, “Synthesis and in vitro antibacterial activity of new aminothiazole-oximepiperidone cephalosporins” (2021).
Converted amounts (≈) assume the structure as drawn.

Assays:
Assay type in all cases: functional
[1] = test system: Enterococcus faecalis; assay: Antibacterial activity against Enterococcus faecalis ATCC 51299 assessed as reduction in bacterial growth
[2] = test system: Klebsiella pneumoniae; assay: Antibacterial activity against Klebsiella pneumoniae ATCC 700603 assessed as reduction in bacterial growth
[3] = test system: Klebsiella pneumoniae; assay: Antibacterial activity against Klebsiella pneumoniae ATCC BAA-1705 assessed as reduction in bacterial growth
[4] = test system: Acinetobacter baumannii; assay: Antibacterial activity against Multidrug resistant Acinetobacter baumannii AR 15-2 assessed as reduction in bacterial growth in the presence of Avibactam
[5] = test system: Acinetobacter baumannii; assay: Antibacterial activity against Carbapenem- resistant Acinetobacter baumannii 17-3 assessed as reduction in bacterial growth
[6] = test system: Acinetobacter baumannii; assay: Antibacterial activity against Carbapenem- resistant Acinetobacter baumannii 17-5 assessed as reduction in bacterial growth
[7] = test system: Klebsiella pneumoniae; assay: Antibacterial activity against Carbapenem- resistant Klebsiella pneumoniae KR 15-4 assessed as reduction in bacterial growth
[8] = test system: Klebsiella pneumoniae; assay: Antibacterial activity against Carbapenem- resistant Klebsiella pneumoniae KR 15-9 assessed as reduction in bacterial growth
[9] = test system: Klebsiella pneumoniae; assay: Antibacterial activity against Carbapenem- resistant Klebsiella pneumoniae KR 15-12 assessed as reduction in bacterial growth
[10] = test system: Klebsiella pneumoniae; assay: Antibacterial activity against Carbapenem- sensitive Klebsiella pneumoniae 17-1 overexpressing extended spectrum beta-lactamases assessed as reduction in bacterial growth
[11] = test system: Klebsiella pneumoniae; assay: Antibacterial activity against Carbapenem- sensitive Klebsiella pneumoniae 17-5 overexpressing extended spectrum beta-lactamases assessed as reduction in bacterial growth
[12] = test system: Klebsiella pneumoniae; assay: Antibacterial activity against Carbapenem- sensitive Klebsiella pneumoniae 17-6 overexpressing extended spectrum beta-lactamases assessed as reduction in bacterial growth
[13] = test system: Klebsiella pneumoniae; assay: Antibacterial activity against Carbapenem- sensitive Klebsiella pneumoniae 17-9 overexpressing extended spectrum beta-lactamases assessed as reduction in bacterial growth
[14] = test system: Klebsiella pneumoniae; assay: Antibacterial activity against Carbapenem- sensitive Klebsiella pneumoniae 17-10 overexpressing extended spectrum beta-lactamases assessed as reduction in bacterial growth
[15] = test system: Klebsiella pneumoniae; assay: Antibacterial activity against Carbapenem- sensitive Klebsiella pneumoniae 17-12 overexpressing extended spectrum beta-lactamases assessed as reduction in bacterial growth
[16] = test system: Klebsiella pneumoniae; assay: Antibacterial activity against Carbapenem- sensitive Klebsiella pneumoniae 17-13 overexpressing extended spectrum beta-lactamases assessed as reduction in bacterial growth
[17] = test system: Klebsiella pneumoniae; assay: Antibacterial activity against Carbapenem- sensitive Klebsiella pneumoniae 17-14 overexpressing extended spectrum beta-lactamases assessed as reduction in bacterial growth
[18] = test system: Klebsiella pneumoniae; assay: Antibacterial activity against Carbapenem- sensitive Klebsiella pneumoniae 17-15 overexpressing extended spectrum beta-lactamases assessed as reduction in bacterial growth
[19] = test system: Klebsiella pneumoniae; assay: Antibacterial activity against ESBLs negative Carbapenem-sensitive Klebsiella pneumoniae 17-16 assessed as reduction in bacterial growth
[20] = test system: Klebsiella pneumoniae; assay: Antibacterial activity against ESBLs negative Carbapenem-sensitive Klebsiella pneumoniae 17-20 assessed as reduction in bacterial growth
[21] = test system: Escherichia coli; assay: Antibacterial activity against ESBLs positive Carbapenem-sensitive Escherichia coli 17-3 assessed as reduction in bacterial growth
[22] = test system: Escherichia coli; assay: Antibacterial activity against ESBLs positive Carbapenem-sensitive Escherichia coli 17-5 assessed as reduction in bacterial growth
[23] = test system: Escherichia coli; assay: Antibacterial activity against ESBLs positive Carbapenem-sensitive Escherichia coli 17-10 assessed as reduction in bacterial growth
[24] = test system: Escherichia coli; assay: Antibacterial activity against ESBLs positive Carbapenem-sensitive Escherichia coli 17-11 assessed as reduction in bacterial growth
[25] = test system: Escherichia coli; assay: Antibacterial activity against ESBLs positive Carbapenem-sensitive Escherichia coli 17-15 assessed as reduction in bacterial growth
[26] = test system: Escherichia coli; assay: Antibacterial activity against ESBLs positive Carbapenem-sensitive Escherichia coli 17-17 assessed as reduction in bacterial growth
[27] = test system: Escherichia coli; assay: Antibacterial activity against ESBLs negative Carbapenem-sensitive Escherichia coli 17-9 assessed as reduction in bacterial growth
[28] = test system: Enterobacter cloacae; assay: Antibacterial activity against Enterobacter cloacae 17-3 assessed as reduction in bacterial growth
[29] = test system: Enterobacter cloacae; assay: Antibacterial activity against Enterobacter cloacae 17-4 assessed as reduction in bacterial growth
[30] = test system: Enterobacter cloacae; assay: Antibacterial activity against Enterobacter cloacae 17-5 assessed as reduction in bacterial growth
[31] = test system: Enterobacter cloacae; assay: Antibacterial activity against Enterobacter cloacae 17-8 assessed as reduction in bacterial growth
[32] = test system: Enterobacter cloacae; assay: Antibacterial activity against Enterobacter cloacae 17-9 assessed as reduction in bacterial growth
[33] = test system: Enterobacter cloacae; assay: Antibacterial activity against Enterobacter cloacae 17-10 assessed as reduction in bacterial growth
[34] = test system: Klebsiella aerogenes; assay: Antibacterial activity against Enterobacter aerogenes 17-3 assessed as reduction in bacterial growth
[35] = test system: Klebsiella aerogenes; assay: Antibacterial activity against Enterobacter aerogenes 17-4 assessed as reduction in bacterial growth
[36] = test system: Pseudomonas aeruginosa; assay: Antibacterial activity against Carbapenem- sensitive Pseudomonas aeruginosa 17-7 assessed as reduction in bacterial growth
[37] = test system: Pseudomonas aeruginosa; assay: Antibacterial activity against Carbapenem- sensitive Pseudomonas aeruginosa 17-10 assessed as reduction in bacterial growth
[38] = test system: Pseudomonas aeruginosa; assay: Antibacterial activity against Carbapenem- sensitive Pseudomonas aeruginosa 17-21 assessed as reduction in bacterial growth
[39] = test system: Pseudomonas aeruginosa; assay: Antibacterial activity against Carbapenem- sensitive Pseudomonas aeruginosa 17-29 assessed as reduction in bacterial growth
[40] = test system: Acinetobacter baumannii; assay: Antibacterial activity against Carbapenem- resistant Acinetobacter baumannii 17-8 assessed as reduction in bacterial growth in the presence of Avibactam
[41] = test system: Klebsiella pneumoniae; assay: Bactericidal activity against Carbapenem- resistant Klebsiella pneumoniae KR 15-7 assessed as reduction in bacterial growth
[42] = test system: Klebsiella pneumoniae; assay: Bactericidal activity against ESBLs positive Carbapenem-sensitive Klebsiella pneumoniae 17-2 assessed as reduction in bacterial growth
[43] = test system: Pseudomonas aeruginosa; assay: Bactericidal activity against carbapenem-sensitive Pseudomonas aeruginosa 17-10 assessed as reduction in bacterial growth
[44] = test system: Pseudomonas aeruginosa; assay: Bactericidal activity against carbapenem-sensitive Pseudomonas aeruginosa 17-26 assessed as reduction in bacterial growth
[45] = test system: Pseudomonas aeruginosa; assay: Bactericidal activity against Pseudomonas aeruginosa ATCC 27853 assessed as reduction in bacterial growth
[46] = test system: Acinetobacter baumannii; assay: Bactericidal activity against Carbapenem- resistant Acinetobacter baumannii 17-6 assessed as reduction in bacterial growth in the presence of avibactam
[47] = test system: Klebsiella pneumoniae; assay: Bactericidal activity against ESBLs negative Carbapenem-sensitive Klebsiella pneumoniae 17-17 assessed as reduction in bacterial growth in the presence of avibactam
[48] = test system: Escherichia coli; assay: Bactericidal activity against ESBLs positive carbapenem-sensitive Escherichia coli 17-10 assessed as reduction in bacterial growth in the presence of avibactam
[49] = test system: Escherichia coli; assay: Bactericidal activity against Escherichia coli NCTC 13353 assessed as reduction in bacterial growth in the presence of avibactam
[50] = test system: Acinetobacter baumannii; assay: Bactericidal activity against Acinetobacter baumannii NCTC 13304 assessed as reduction in bacterial growth in the presence of avibactam

For CC(C)(O/N=C(\C(=O)N[C@@H]1C(=O)N2C(C(=O)[O-])=C(C[n+]3ccccc3)CS[C@H]12)c1csc(N)n1)C(=O)O [CEFTAZIDIME], the MIC [1] was over 64 µg/mL, the MIC [2] was 32 µg/mL (≈ 58.5 µM) and the MIC [3] was 64 µg/mL (≈ 117 µM). For the same molecule, the MIC [4] was 8 µg/mL, the MIC [5] was over 64 µg/mL and the MIC [6] was over 64 µg/mL. The MIC [7] was over 64 µg/mL, the MIC [8] was 64 µg/mL (≈ 117 µM) and the MIC [9] was 64 µg/mL (≈ 117 µM). The MIC [10] was 64 µg/mL (≈ 117 µM), the MIC [11] was 1 µg/mL (≈ 1.83 µM) and the MIC [12] was 8 µg/mL (≈ 14.6 µM). It also gave an MIC [13] of 64 µg/mL (≈ 117 µM), an MIC [14] of 16 µg/mL (≈ 29.3 µM) and an MIC [15] of 4 µg/mL (≈ 7.32 µM). For the same molecule, the MIC [16] was 4 µg/mL (≈ 7.32 µM), the MIC [17] was 2 µg/mL (≈ 3.66 µM) and the MIC [18] was 32 µg/mL (≈ 58.5 µM). It also gave an MIC [19] of 2 µg/mL (≈ 3.66 µM), an MIC [20] of 0.125 µg/mL (≈ 0.229 µM) and an MIC [21] of 2 µg/mL (≈ 3.66 µM). The MIC [22] was 4 µg/mL (≈ 7.32 µM), the MIC [23] was 4 µg/mL (≈ 7.32 µM) and the MIC [24] was 32 µg/mL (≈ 58.5 µM). It also gave an MIC [25] of 64 µg/mL (≈ 117 µM), an MIC [26] of 32 µg/mL (≈ 58.5 µM) and an MIC [27] of 0.5 µg/mL (≈ 0.915 µM). It also gave an MIC [28] of 1 µg/mL (≈ 1.83 µM), an MIC [29] of 0.5 µg/mL (≈ 0.915 µM) and an MIC [30] of 64 µg/mL (≈ 117 µM). It also gave an MIC [31] of 0.125 µg/mL (≈ 0.229 µM), an MIC [32] of 0.5 µg/mL (≈ 0.915 µM) and an MIC [33] of 1 µg/mL (≈ 1.83 µM). The MIC [34] was 0.5 µg/mL (≈ 0.915 µM), the MIC [35] was 8 µg/mL (≈ 14.6 µM) and the MIC [36] was 0.125 µg/mL (≈ 0.229 µM). It also gave an MIC [37] of 8 µg/mL (≈ 14.6 µM), an MIC [38] of 4 µg/mL (≈ 7.32 µM) and an MIC [39] of 1 µg/mL (≈ 1.83 µM). The MIC [40] was 8 µg/mL, the MBC [41] was over 64 µg/mL and the MBC [42] was 4 µg/mL (≈ 7.32 µM). It also gave an MBC [43] of 8 µg/mL (≈ 14.6 µM), an MBC [44] of 8 µg/mL (≈ 14.6 µM) and an MBC [45] of 1 µg/mL (≈ 1.83 µM). For the same molecule, the MBC [46] was 16 µg/mL, the MBC [47] was 0.25 µg/mL and the MBC [48] was 1 µg/mL. The MBC [49] was 1 µg/mL and the MBC [50] was 8 µg/mL.
